Results on 1 molecule are retold here after patent US9981999B2, “Neprilysin inhibitors” (THERAVANCE BIOPHARMA R&D IP, LLC, priority 2012, dated 2018).

Where only a bound is given, the exact number is not on record here.

This assay deals with T1, human neprilysin (EC 3.4.24.11; NEP) (Homo sapiens, UniProt P08473).
T1 construct: purchased R&D Systems, Minneapolis, MN 1182-ZN
The experiment in a line: In vitro enzyme inhibition assay at human NEP (fluorogenic peptide substrate). In kind it is biochemical. The following applies: recombinant human NEP; fluorogenic substrate Mca-D-Arg-Arg-Leu-Dap-(Dnp)-OH; 37° C., pH 7.5; read-out: pKi value at human NEP (converted). The method, then: The inhibitory activities of compounds at human and rat neprilysin (EC 3.4.24.11; NEP) and human angiotensin converting enzyme (ACE) were determined using in vitro assays as described below.
Recombinant human NEP and recombinant human ACE were obtained commercially (R&D Systems, Minneapolis, MN, catalog numbers 1182-ZN and 929-ZN, respectively). The fluorogenic peptide substrate Mca-D-Arg-Arg-Leu-Dap-(Dnp)-OH (Medeiros et al. (1997) Braz. J. Med. Biol. Res. 30:1157-62; Anaspec, San Jose, Calif.) and Abz-Phe-Arg-Lys(Dnp)-Pro-OH (Araujo et al. (2000) Biochemistry 39:8519-8525; Bachem, Torrance, Calif.) were used in the NEP and ACE assays respectively.
The assays were performed in 384-well white opaque plates at 37° C. using the fluorogenic peptide substrates at a concentration of 10 µM in Assay Buffer (NEP: 50 mM HEPES, pH 7.5, 100 mM NaCl, 0.01% polyethylene glycol sorbitan monolaurate (Tween-20), 10 μM ZnSO4; ACE: 50 mM HEPES, pH 7.5, 100 mM NaCl, 0.01% Tween-20, 1 μM ZnSO4).
Test compounds were assayed over the range of concentrations from […] to 20 μM. Test compounds were added to the enzymes and incubated for 30 minute at 37° C. prior to initiating the reaction by the addition of substrate. […]
Plates were read on a fluorometer with excitation and emission wavelengths set to 320 nm and 405 nm, respectively. […]

T1 sequence (P08473 52-750 limits assumed): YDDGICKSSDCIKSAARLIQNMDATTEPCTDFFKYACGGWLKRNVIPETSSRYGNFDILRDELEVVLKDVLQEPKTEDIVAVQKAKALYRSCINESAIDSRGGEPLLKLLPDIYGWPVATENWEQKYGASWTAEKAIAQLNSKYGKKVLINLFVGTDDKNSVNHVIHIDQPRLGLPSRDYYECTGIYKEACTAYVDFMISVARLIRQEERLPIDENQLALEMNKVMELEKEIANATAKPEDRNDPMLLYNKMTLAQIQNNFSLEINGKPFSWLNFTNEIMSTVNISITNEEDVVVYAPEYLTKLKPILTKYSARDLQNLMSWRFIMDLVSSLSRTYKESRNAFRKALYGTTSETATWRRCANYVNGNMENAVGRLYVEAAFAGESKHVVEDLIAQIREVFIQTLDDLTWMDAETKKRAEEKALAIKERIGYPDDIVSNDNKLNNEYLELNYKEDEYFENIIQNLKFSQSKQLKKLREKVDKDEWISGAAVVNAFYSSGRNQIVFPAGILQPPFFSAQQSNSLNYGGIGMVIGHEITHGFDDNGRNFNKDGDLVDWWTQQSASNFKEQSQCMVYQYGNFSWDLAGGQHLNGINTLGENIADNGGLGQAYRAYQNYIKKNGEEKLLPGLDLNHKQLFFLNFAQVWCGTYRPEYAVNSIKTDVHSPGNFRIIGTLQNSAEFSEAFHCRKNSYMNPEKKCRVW

With `CC(=O)c1cc(C(=O)NN(Cc2ccc(-c3cc(Cl)ccc3F)cc2)C[C@@H](O)C(=O)O)[nH]n1` [Example 6A, (R)-3-[N′-(5-Acetyl-2H-pyrazole-3-carbonyl)-N-(5′-chloro-2′-fluorobiphenyl-4-ylmethyl)hydrazino]-2-hydroxypropionic Acid], the Ki is no more than 1 nM.
